{"source": "paper PMC6554663", "about": "“Pharmaceutical Effects of Inhibiting the Soluble Epoxide Hydrolase in Canine Osteoarthritis” (Frontiers in Pharmacology, 2019)", "tested_on": "Canine chondrocytes (CnC)", "assay": "IL1β induced chondrocyte cytotoxicity (Alamar Blue)", "format": "cell-based", "details": "meloxicam 1 μg/mL, EET 0.4 μg/mL total, 48 h", "experimental": "Canine chondrocytes (CnC) were purchased from Cell Applications, Inc. […] Cells were kept at room temperature and monitored for detachment (∼2 min). Detached cells were added to 3× volume of full growth media and centrifuged to remove trypsin. Cells were reseeded at a concentration of 15,000 cells/cm^2 to reach 80% confluence in 3 days. Cells were expanded and frozen at the third passage in CGS containing 10% DMSO. For individual experiments, fresh cells were thawed and used at passage 5. Canine chondrocytes cells were plated in 96-well plates at a density of 15,000 cells/cm^2. Optimal cell number was predetermined by a cell seeding experiment outlined in [O'Brien et al. […] After 2 h, the IL1β treated media was aspirated and replaced with complete growth media supplemented with either vehicle (0.1% ethanol), regioisomers of EETs, or meloxicam for 48-h before assessing inflammatory cytokines and cytotoxicity. Cells were also pretreated with meloxicam or EET mixture 30 min prior to adding IL1β treatment for 2-h. After IL1β was removed, treatments were added to complete growth media for 48-h as described above. Treatment conditions are described in the Section “Results.” After the CnC cells were treated for 48-h under conditions described above, the media was removed and replaced with complete media containing 10% Alamar Blue (Life Technologies, catalog number DAL1025). The Alamar Blue assay relies on the metabolism of non-fluorescent resazurin to the highly fluorescent resorufin by healthy cells. Fluorescent intensity can be used to track cytotoxicity after xenobiotic treatments ([Larson et al., 1997]). After the addition of Alamar Blue, plates were protected from light and incubated at […] in a 5% CO2 atmosphere for 8 h. The conversion of resazurin was monitored by reading fluorescence at 570 excitations and 585 emission on a plate reader (Tecan […]) and cytotoxicity was calculated as the ratio of fluorescence from treated cells to non-treated controls.", "data": [{"smiles": "Cc1cnc(NC(=O)C2=C(O)c3ccccc3S(=O)(=O)N2C)s1", "note": "[Meloxicam]", "values": [{"measurement": "IL1β induced cytotoxicity, treatment added after IL1β", "setting": "10 ng/mL IL1β 2 h", "result": "did not result in significant reduction in cytotoxicity"}, {"measurement": "IL1β induced cytotoxicity, treatment added before IL1β", "setting": "10 ng/mL IL1β 2 h", "result": "significantly reduced"}, {"measurement": "effect on healthy CnC cells (cytotoxicity, Alamar Blue)", "setting": "absence of IL1β", "result": "no effect"}]}]}
